Reference: ChEMBL document CHEMBL4680150, “Design, synthesis and biological evaluation of vincamine derivatives as potential pancreatic β-cells protective agents for the treatment of type 2 diabetes mellitus” (Eur J Med Chem, 2020)
The source made the active and inactive calls. Unless noted, the rule behind the calls is not given here.

What was measured:
[1] = test system: INS1(832/13); test: Cytoprotective activity in rat INS-1 832/13 cells assessed as inhibition of STZ-induced apoptosis at 20 uM incubated for 24 hrs by MTT assay relative to control; format: functional; parameters: scale not given: the % may be the effect or the level left
[2] = test system: INS1(832/13); test: Cytoprotective activity in rat INS-1 832/13 cells assessed as inhibition of STZ-induced apoptosis incubated for 24 hrs by MTT assay; format: functional, cell-based; settings: INS-1 832/13, 24 h
[3] = test system: INS1(832/13); test: Cytoprotective activity against STZ-induced toxicity in rat INS-1 832/13 cells at 20 uM incubated for 24 hrs by MTT assay; format: functional, cell-based
[4] = test system: INS1(832/13); test: Cytoprotective activity against STZ-induced toxicity in rat INS-1 832/13 cells assessed as mass of apoptotic cells at 20 uM by Annexin V-FITC staining based flow cytometric analysis (reference value: 40.8%); format: functional
[5] = test system: INS-1 832/13; test: Activation of AKT in STZ-induced rat INS-1 832/13 cells assessed as increase in Akt phosphorylation at 20 uM after 24 hrs by AlphaLISA assay; settings: filed as activator
[6] = test system: INS-1 832/13; test: Activation of AKT in STZ-induced rat INS-1 832/13 cells assessed as increase in Akt phosphorylation at 20 uM after 24 hrs by Western blot analysis; settings: filed as activator
[7] = test system: INS1(832/13); test: Cytoprotective activity in rat INS-1 832/13 cells assessed as inhibition of STZ-induced apoptosis at 20 uM incubated for 24 hrs in presence of wortmannin by MTT assay; format: functional, cell-based
[8] = test system: INS-1 832/13; test: Activation of AKT in STZ-induced rat INS-1 832/13 cells assessed as increase in Akt phosphorylation at 20 uM after 24 hrs in presence of wortmannin by Western blot analysis
[9] = test system: INS-1 832/13; test: Activation of PI3K/Akt signalling pathway in STZ-induced rat INS-1 832/13 cells assessed as increase in phosphorylation of FOX01 at Ser256 residue at 5 to 20 uM after 24 hrs by Western blot analysis; settings: filed as activator, dose 5-20 µM
[10] = test system: INS1(832/13); test: Potency index, ratio of vincamine EC50 to test compound EC50 for cytoprotective activity in rat INS-1 832/13 cells assessed as inhibition of STZ-induced apoptosis; format: functional
[11] = test system: INS1(832/13); test: Cytoprotective activity against STZ-induced toxicity in rat INS-1 832/13 cells at 10 uM incubated for 24 hrs by MTT assay; format: functional, cell-based
[12] = test system: INS1(832/13); test: Cytoprotective activity against STZ-induced toxicity in rat INS-1 832/13 cells assessed as mass of apoptotic cells at 5 uM by Annexin V-FITC staining based flow cytometric analysis (reference value: 40.8%); format: functional
[13] = test system: INS1(832/13); test: Cytoprotective activity against STZ-induced toxicity in rat INS-1 832/13 cells assessed as mass of apoptotic cells at 10 uM by Annexin V-FITC staining based flow cytometric analysis (reference value: 40.8%); format: functional
[14] = test system: INS-1 832/13; test: Activation of AKT in STZ-induced rat INS-1 832/13 cells assessed as increase in Akt phosphorylation at 5 to 20 uM after 24 hrs by AlphaLISA assay; settings: filed as activator, dose 5-20 µM
[15] = test system: INS-1 832/13; test: Activation of AKT in STZ-induced rat INS-1 832/13 cells assessed as increase in Akt phosphorylation at 5 to 20 uM after 24 hrs by Western blot analysis; settings: filed as activator, dose 5-20 µM
[16] = test system: INS-1 832/13; test: Activation of PI3K/Akt signalling pathway in STZ-induced rat INS-1 832/13 cells assessed as increase in phosphorylation of GSK3beta at Ser9 residue at 5 to 20 uM after 24 hrs by Western blot analysis; settings: filed as activator, dose 5-20 µM
[17] = test system: INS-1 832/13; test: Activation of PI3K/Akt signalling pathway in STZ-induced rat INS-1 832/13 cells assessed as decrease in caspase 9 protein expression at 5 to 20 uM after 24 hrs by Western blot analysis; settings: filed as activator, dose 5-20 µM
[18] = test system: INS-1 832/13; test: Activation of PI3K/Akt signalling pathway in STZ-induced rat INS-1 832/13 cells assessed as decrease in caspase 3 protein expression at 5 to 20 uM after 24 hrs by Western blot analysis; settings: filed as activator, dose 5-20 µM
[19] = test system: INS-1 832/13; test: Activation of PI3K/Akt signalling pathway in STZ-induced rat INS-1 832/13 cells assessed as decrease in cleaved-caspase 3 protein expression at 5 to 20 uM after 24 hrs by Western blot analysis; settings: filed as activator, dose 5-20 µM
[20] = test system: INS-1 832/13; test: Activation of PI3K/Akt signalling pathway in STZ-induced rat INS-1 832/13 cells assessed as decrease in Bim mRNA expression at 5 to 20 uM after 24 hrs by RT-PCR analysis; settings: filed as activator, dose 5-20 µM
[21] = test system: INS-1 832/13; test: Activation of PI3K/Akt signalling pathway in STZ-induced rat INS-1 832/13 cells assessed as decrease in p21 mRNA expression at 5 to 20 uM after 24 hrs by RT-PCR analysis; settings: filed as activator, dose 5-20 µM
[22] = test system: INS1(832/13); test: Cytoprotective activity against STZ-induced rat INS-1 832/13 cells assessed as increase in IRS2 protein expression at 5 to 20 uM after 24 hrs Western blot analysis; format: functional, cell-based; settings: dose 5-20 µM
[23] = test system: INS1(832/13); test: Cytoprotective activity against STZ-induced rat INS-1 832/13 cells assessed as increase in IRS2 mRNA expression at 5 to 20 uM after 24 hrs RT-PCR analysis; format: functional, cell-based; settings: dose 5-20 µM

`CC[C@]12CCCN3CCc4c(n(c5ccccc45)[C@@](O)(C(=O)OC)C1)[C@@H]32` [VINCAMINE] was tested, and the Activity [1] was 63%, the EC50 [2] was 11 µM and the Activity [3] was “Active”. For the same compound, the Activity [4] was 28.7%, the Activity [5] was “Active” and the Activity [6] was “Active”. For the same compound, the Activity [7] was “inactive” and the Activity [8] was “inactive”.
`CCNCC1=C[C@]2(CC)CCCN3CCc4c(n1c1ccccc41)[C@@H]32` was tested, and the Activity [9] was “Active”, the Activity [1] was “Active” and the EC50 [2] was 0.27 µM. The “Ratio EC50” value [10] was 2, the Activity [11] was “Active” and the Activity [4] was 24.1%. For the same compound, the Activity [12] was 31.3%, the Activity [13] was 29.1% and the Activity [14] was “Active”. The Activity [15] was “Active”, the Activity [7] was “inactive” and the Activity [8] was “inactive”. The Activity [16] was “Active”, the Activity [17] was “Active” and the Activity [18] was “Active”. The Activity [19] was “Active”, the Activity [20] was “Active” and the Activity [21] was “Active”. The Activity [22] was “Active” and the Activity [23] was “Active”.
